{"source": "patent US12551482B2", "about": "“Aurora kinase inhibitors” (The Regents of the University of California, priority 2013, dated 2026)", "key": {"PE/CA-PJ15": {"test_system": "PE/CA-PJ15", "assay": "Cancer cell line profiling, Genomics of Drug Sensitivity Project", "conditions": "read-out: CD532 EC50 (uM)"}, "SNU-5": {"test_system": "SNU-5", "assay": "Cancer cell line profiling, Genomics of Drug Sensitivity Project", "conditions": "Homo sapiens, SNU-5, read-out: CD532 EC50 (uM)"}, "OVKATE": {"test_system": "OVKATE", "assay": "Cancer cell line profiling, Genomics of Drug Sensitivity Project", "conditions": "read-out: CD532 EC50 (uM)"}, "A431": {"test_system": "A431", "assay": "Cancer cell line profiling, Genomics of Drug Sensitivity Project", "conditions": "Homo sapiens, A-431, read-out: CD532 EC50 (uM)"}, "SK-HEP-1": {"test_system": "SK-HEP-1", "assay": "Cancer cell line profiling, Genomics of Drug Sensitivity Project", "conditions": "Homo sapiens, SK-HEP1, read-out: CD532 EC50 (uM)"}, "IGR-1": {"test_system": "IGR-1", "assay": "Cancer cell line profiling, Genomics of Drug Sensitivity Project", "conditions": "Homo sapiens, IGR-1, read-out: CD532 EC50 (uM)"}, "SH-4": {"test_system": "SH-4", "assay": "Cancer cell line profiling, Genomics of Drug Sensitivity Project", "conditions": "Homo sapiens, SH-4, read-out: CD532 EC50 (uM)"}, "NH-12": {"test_system": "NH-12", "assay": "Cancer cell line profiling, Genomics of Drug Sensitivity Project", "conditions": "read-out: CD532 EC50 (uM)"}, "DSH1": {"test_system": "DSH1", "assay": "Cancer cell line profiling, Genomics of Drug Sensitivity Project", "conditions": "read-out: CD532 EC50 (uM)"}, "Hs, 766T": {"test_system": "Hs, 766T", "assay": "Cancer cell line profiling, Genomics of Drug Sensitivity Project", "conditions": "Hs766T, read-out: CD532 EC50 (uM)"}, "JHH-1": {"test_system": "JHH-1", "assay": "Cancer cell line profiling, Genomics of Drug Sensitivity Project", "conditions": "JHH1, read-out: CD532 EC50 (uM)"}, "SNU-449": {"test_system": "SNU-449", "assay": "Cancer cell line profiling, Genomics of Drug Sensitivity Project", "conditions": "Homo sapiens, SNU-449, read-out: CD532 EC50 (uM)"}, "SCC-4": {"test_system": "SCC-4", "assay": "Cancer cell line profiling, Genomics of Drug Sensitivity Project", "conditions": "Homo sapiens, SCC-4, read-out: CD532 EC50 (uM)"}, "MEL-JUSO": {"test_system": "MEL-JUSO", "assay": "Cancer cell line profiling, Genomics of Drug Sensitivity Project", "conditions": "Homo sapiens, read-out: CD532 EC50 (uM)"}, "GI-ME-N": {"test_system": "GI-ME-N", "assay": "Cancer cell line profiling, Genomics of Drug Sensitivity Project"}, "[1]": {"test_system": "Kelly MYCN-amplified neuroblastoma cells", "assay": "Viability at 72 hrs, CyQUANT assay", "assay_type": "cell-based", "conditions": "FIG. 1F, read-out: cellular EC50 at 72 hrs", "protocol": "Neuroblastoma cells were treated for the indicated time, trypsinized, washed, stained with Dylight 800 at 0.3 μg/mL (Pierce, 46421), fixed with 1.5% PFA, and permeabilized with 100% methanol. Cells were then stained with antibodies against p-MPM2 (Millipore, 16-155), p-pan-Aurora (Cell Signaling, 2914), MYCN (Thermo, PA5-17403), rabbit IgG (Invitrogen, A10542), or mouse IgG (BioLegend, 405307). Cells were stained with DAPI at 0.3 μg/mL (Invitrogen, D21490) and analyzed on the BD LSR II flow cytometer. For cell cycle analysis, cells were stimulated with EdU for 2 hours prior to harvest, then probed using the Click-iT EdU Flow Cytometry Assay Kit (Invitrogen, C10424). Cells were stained with propidium iodide (BD, 556547) and analyzed on the BD FACSCalibur flow cytometer. Data was gated using Cytobank. For viability studies, neuroblastoma cells were plated in 96-well plates at a density of 1,000 cells/well for SHEP or 4,000 cells/well for Kelly or SK—N-BE2 cells, then incubated with indicated concentrations of drug for 72 hours at 37° C. […] CyQUANT reagent mixture (Invitrogen, C7026) was added to thawed plates, then fluorescence was measured. Alternatively, resazurin (Sigma-Aldrich, R7017) was added directly to wells following drug treatment then incubated for 4 hours at 37° C. prior to measuring fluorescence. Data was analyzed using GraphPad Prism software."}, "KLE": {"test_system": "KLE", "assay": "Cancer cell line profiling, Genomics of Drug Sensitivity Project", "conditions": "Homo sapiens, read-out: CD532 EC50 (uM)"}, "LOXIMVI": {"test_system": "LOXIMVI", "assay": "Cancer cell line profiling, Genomics of Drug Sensitivity Project"}, "K5": {"test_system": "K5", "assay": "Cancer cell line profiling, Genomics of Drug Sensitivity Project", "conditions": "read-out: CD532 EC50 (uM)"}, "HPAC": {"test_system": "HPAC", "assay": "Cancer cell line profiling, Genomics of Drug Sensitivity Project", "conditions": "Homo sapiens, read-out: CD532 EC50 (uM)"}, "A253": {"test_system": "A253", "assay": "Cancer cell line profiling, Genomics of Drug Sensitivity Project", "conditions": "Homo sapiens, A253, read-out: CD532 EC50 (uM)"}, "OVMIU": {"test_system": "OVMIU", "assay": "Cancer cell line profiling, Genomics of Drug Sensitivity Project", "conditions": "read-out: CD532 EC50 (uM)"}, "MKN28": {"test_system": "MKN28", "assay": "Cancer cell line profiling, Genomics of Drug Sensitivity Project", "conditions": "Homo sapiens, MKN-28, read-out: CD532 EC50 (uM)"}, "NB5": {"test_system": "NB5", "assay": "Cancer cell line profiling, Genomics of Drug Sensitivity Project", "conditions": "read-out: CD532 EC50 (uM)"}, "WM-115": {"test_system": "WM-115", "assay": "Cancer cell line profiling, Genomics of Drug Sensitivity Project", "conditions": "Homo sapiens, WM-115, read-out: CD532 EC50 (uM)"}, "phospho-pan-Aurora": {"test_system": "phospho-pan-Aurora", "assay": "Phospho-pan-Aurora by flow cytometry", "assay_type": "cell-based", "conditions": "1 μM, 6 hrs (FIG. 6C)", "protocol": "Neuroblastoma cells were treated for the indicated time, trypsinized, washed, stained with Dylight 800 at 0.3 μg/mL (Pierce, 46421), fixed with 1.5% PFA, and permeabilized with 100% methanol. Cells were then stained with antibodies against p-MPM2 (Millipore, 16-155), p-pan-Aurora (Cell Signaling, 2914), MYCN (Thermo, PA5-17403), rabbit IgG (Invitrogen, A10542), or mouse IgG (BioLegend, 405307). Cells were stained with DAPI at 0.3 μg/mL (Invitrogen, D21490) and analyzed on the BD LSR II flow cytometer. For cell cycle analysis, cells were stimulated with EdU for 2 hours prior to harvest, then probed using the Click-iT EdU Flow Cytometry Assay Kit (Invitrogen, C10424). Cells were stained with propidium iodide (BD, 556547) and analyzed on the BD FACSCalibur flow cytometer. Data was gated using Cytobank. For viability studies, neuroblastoma cells were plated in 96-well plates at a density of 1,000 cells/well for SHEP or 4,000 cells/well for Kelly or SK—N-BE2 cells, then incubated with indicated concentrations of drug for 72 hours at 37° C. Plates were frozen at −80° C. to induce cell lysis. CyQUANT reagent mixture (Invitrogen, C7026) was added to thawed plates, then fluorescence was measured. Alternatively, resazurin (Sigma-Aldrich, R7017) was added directly to wells following drug treatment then incubated for 4 hours at 37° C. prior to measuring fluorescence. Data was analyzed using GraphPad Prism software."}, "HLE": {"test_system": "HLE", "assay": "Cancer cell line profiling, Genomics of Drug Sensitivity Project", "conditions": "Homo sapiens, read-out: CD532 EC50 (uM)"}}, "note": "Like-named read-outs stand apart in the source and are kept apart here."}
{"compound": "O=C(Nc1ccc(Nc2nccc(Nc3cc(C4CCCC4)[nH]n3)n2)cc1)Nc1cccc(C(F)(F)F)c1", "note": "[CD532, 1-(4-((4-((5-cyclopentyl-1H-pyrazol-3-yl)amino)pyrimidin-2-yl)amino)phenyl)-3-(3-(trifluoromethyl)phenyl)urea]", "values": [{"measurement": "EC50", "setting": "PE/CA-PJ15", "value": 1.9, "unit": "µM"}, {"measurement": "EC50", "setting": "SNU-5", "value": 2.51, "unit": "µM"}, {"measurement": "EC50", "setting": "OVKATE", "value": 6, "unit": "µM"}, {"measurement": "EC50", "setting": "A431", "value": 0.364, "unit": "µM"}, {"measurement": "EC50", "setting": "SK-HEP-1", "value": 1.6, "unit": "µM"}, {"measurement": "EC50", "setting": "IGR-1", "value": 0.27, "unit": "µM"}, {"measurement": "EC50", "setting": "SH-4", "value": 0.783, "unit": "µM"}, {"measurement": "EC50", "setting": "NH-12", "value": 0.37, "unit": "µM"}, {"measurement": "EC50", "setting": "DSH1", "value": 0.779, "unit": "µM"}, {"measurement": "EC50", "setting": "Hs, 766T", "value": 2.45, "unit": "µM"}, {"measurement": "EC50", "setting": "JHH-1", "value": 0.295, "unit": "µM"}, {"measurement": "EC50", "setting": "SNU-449", "value": 12.1, "unit": "µM"}, {"measurement": "EC50", "setting": "SCC-4", "value": 0.884, "unit": "µM"}, {"measurement": "EC50", "setting": "MEL-JUSO", "value": 0.783, "unit": "µM"}, {"measurement": "EC50", "setting": "GI-ME-N; read-out: CD532 EC50 (uM), GI-ME-N cell line, Nervous System", "value": 0.428, "unit": "µM"}, {"measurement": "EC50", "setting": "GI-ME-N; read-out: CD532 EC50, GI-ME-N cell line, Nervous System", "value": 0.812, "unit": "µM"}, {"measurement": "EC50", "setting": "[1]", "value": 147, "unit": "nM"}, {"measurement": "EC50", "setting": "KLE", "value": 2.99, "unit": "µM"}, {"measurement": "EC50", "setting": "LOXIMVI; Homo sapiens, LOX IMVI, read-out: CD532 EC50 (uM), LOXIMVI cell line, Skin", "value": 0.732, "unit": "µM"}, {"measurement": "EC50", "setting": "LOXIMVI; read-out: CD532 EC50, LOXIMVI cell line, Skin", "value": 0.384, "unit": "µM"}, {"measurement": "EC50", "setting": "K5", "value": 1.33, "unit": "µM"}, {"measurement": "EC50", "setting": "HPAC", "value": 2.5, "unit": "µM"}, {"measurement": "EC50", "setting": "A253", "value": 24.5, "unit": "µM"}, {"measurement": "EC50", "setting": "OVMIU", "value": 0.869, "unit": "µM"}, {"measurement": "EC50", "setting": "MKN28", "value": 10.1, "unit": "µM"}, {"measurement": "EC50", "setting": "NB5", "value": 0.761, "unit": "µM"}, {"measurement": "EC50", "setting": "WM-115", "value": 0.412, "unit": "µM"}, {"measurement": "phospho-pan-Aurora", "setting": "phospho-pan-Aurora", "value": "loss of phospho-pan-Aurora"}, {"measurement": "EC50", "setting": "HLE", "value": 0.567, "unit": "µM"}]}
